Measured values published in ChEMBL document CHEMBL2390840, “An analysis of the synthetic tryptamines AMT and 5-MeO-DALT: emerging 'Novel Psychoactive Drugs'” (Bioorg Med Chem Lett, 2013).

Key:
[1] = biological target: T1, 5-hydroxytryptamine receptor 2C (Homo sapiens, UniProt P28335); test: Displacement of [3H]Mesulergine from human recombinant 5-HT2C receptor expressed in HEK293 cells coexpressing FLP-IN after 1 to […] by scintillation counting analysis; type: cell-based
T1 sequence (P28335 whole entry): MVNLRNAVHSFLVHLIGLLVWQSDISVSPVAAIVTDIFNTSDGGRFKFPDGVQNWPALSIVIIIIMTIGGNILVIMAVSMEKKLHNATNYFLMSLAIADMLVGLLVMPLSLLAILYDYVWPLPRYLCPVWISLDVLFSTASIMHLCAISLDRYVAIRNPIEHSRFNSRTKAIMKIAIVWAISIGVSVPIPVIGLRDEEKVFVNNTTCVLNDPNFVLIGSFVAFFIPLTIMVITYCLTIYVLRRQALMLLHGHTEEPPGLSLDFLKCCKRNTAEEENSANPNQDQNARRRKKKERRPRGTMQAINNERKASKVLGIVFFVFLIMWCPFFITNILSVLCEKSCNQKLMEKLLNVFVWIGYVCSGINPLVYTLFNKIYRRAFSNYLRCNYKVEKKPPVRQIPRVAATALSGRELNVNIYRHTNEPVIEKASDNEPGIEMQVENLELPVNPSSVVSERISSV

[2] = biological target: 5-hydroxytryptamine receptor 1E (Homo sapiens, UniProt P28566); test: Displacement of [3H]5-HT from human recombinant 5-HT1E receptor expressed in HEK293 cells after 1 to […] by scintillation counting analysis; type: cell-based
[3] = biological target: 5-hydroxytryptamine receptor 1D (Homo sapiens, UniProt P28221); test: Displacement of [3H][…] from human recombinant 5-HT1D receptor expressed in HEK293T cells after 1 to […] by scintillation counting analysis; type: cell-based, HEK-293T
[4] = biological target: 5-hydroxytryptamine receptor 1A (Homo sapiens, UniProt P08908); test: Displacement of [3H]8-OH-DPAT from human recombinant 5-HT1A receptor expressed in CHO cells after 1 to […] by scintillation counting analysis; type: cell-based
5-hydroxytryptamine receptor 1A, sequence (P08908 whole entry): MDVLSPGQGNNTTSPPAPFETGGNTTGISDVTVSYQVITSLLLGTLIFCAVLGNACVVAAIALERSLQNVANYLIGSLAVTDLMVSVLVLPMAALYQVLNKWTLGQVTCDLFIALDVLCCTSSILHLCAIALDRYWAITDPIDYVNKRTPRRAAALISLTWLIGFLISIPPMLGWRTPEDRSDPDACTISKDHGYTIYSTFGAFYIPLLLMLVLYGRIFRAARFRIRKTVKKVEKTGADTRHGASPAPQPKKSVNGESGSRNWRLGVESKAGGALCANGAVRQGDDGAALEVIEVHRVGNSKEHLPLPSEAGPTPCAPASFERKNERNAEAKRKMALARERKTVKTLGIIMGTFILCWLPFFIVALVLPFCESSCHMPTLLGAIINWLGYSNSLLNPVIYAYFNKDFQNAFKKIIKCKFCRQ

[5] = biological target: T2, Sodium-dependent serotonin transporter (Homo sapiens, UniProt P31645); type: cell-based, HEK293
T2 sequence (P31645 whole entry): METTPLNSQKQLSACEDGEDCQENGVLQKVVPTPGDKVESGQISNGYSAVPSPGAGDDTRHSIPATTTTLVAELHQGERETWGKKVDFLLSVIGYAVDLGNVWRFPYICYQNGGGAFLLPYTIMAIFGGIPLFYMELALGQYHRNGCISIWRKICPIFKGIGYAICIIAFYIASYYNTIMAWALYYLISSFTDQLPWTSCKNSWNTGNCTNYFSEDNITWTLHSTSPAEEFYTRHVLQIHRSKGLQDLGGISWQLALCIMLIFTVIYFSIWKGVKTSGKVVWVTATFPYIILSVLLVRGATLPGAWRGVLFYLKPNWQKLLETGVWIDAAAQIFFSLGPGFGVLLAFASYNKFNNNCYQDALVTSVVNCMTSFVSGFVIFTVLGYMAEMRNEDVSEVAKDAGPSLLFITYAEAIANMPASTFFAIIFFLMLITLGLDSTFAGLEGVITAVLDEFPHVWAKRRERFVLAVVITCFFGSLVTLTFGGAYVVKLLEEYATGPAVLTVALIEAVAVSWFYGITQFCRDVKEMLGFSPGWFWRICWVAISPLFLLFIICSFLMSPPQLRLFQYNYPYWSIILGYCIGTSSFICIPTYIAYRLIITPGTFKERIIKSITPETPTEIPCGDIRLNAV

[6] = biological target: Sigma non-opioid intracellular receptor 1 (Cavia porcellus, UniProt Q60492); test: Displacement of [3H]Pentazocine from guinea pig sigma 1 receptor after 1 to […] by scintillation counting analysis
Sigma non-opioid intracellular receptor 1, sequence (Q60492 whole entry): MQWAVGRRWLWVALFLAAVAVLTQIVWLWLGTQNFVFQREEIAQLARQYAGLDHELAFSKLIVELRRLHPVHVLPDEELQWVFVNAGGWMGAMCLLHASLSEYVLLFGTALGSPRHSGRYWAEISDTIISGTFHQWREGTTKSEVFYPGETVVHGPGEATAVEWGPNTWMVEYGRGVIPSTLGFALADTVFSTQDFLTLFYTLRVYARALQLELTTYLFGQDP

[7] = biological target: T2, Sodium-dependent serotonin transporter; test: Displacement of [3H]Citalopram from human recombinant serotonin transporter expressed in HEK293 cells after 1 to […] by scintillation counting analysis; type: cell-based
Glutamate NMDA receptor = test: Displacement of [3H]MK801 from NMDA receptor PCP binding site in rat brain after 1 to […] by scintillation counting analysis; type: tissue-based
[8] = biological target: Muscarinic acetylcholine receptor M5 (Homo sapiens, UniProt P08912); test: Displacement of [3H]QNB from human recombinant muscarinic M5 receptor expressed in CHO cells after 1 to […] by scintillation counting analysis; type: cell-based
Muscarinic acetylcholine receptor M5, sequence (P08912 whole entry): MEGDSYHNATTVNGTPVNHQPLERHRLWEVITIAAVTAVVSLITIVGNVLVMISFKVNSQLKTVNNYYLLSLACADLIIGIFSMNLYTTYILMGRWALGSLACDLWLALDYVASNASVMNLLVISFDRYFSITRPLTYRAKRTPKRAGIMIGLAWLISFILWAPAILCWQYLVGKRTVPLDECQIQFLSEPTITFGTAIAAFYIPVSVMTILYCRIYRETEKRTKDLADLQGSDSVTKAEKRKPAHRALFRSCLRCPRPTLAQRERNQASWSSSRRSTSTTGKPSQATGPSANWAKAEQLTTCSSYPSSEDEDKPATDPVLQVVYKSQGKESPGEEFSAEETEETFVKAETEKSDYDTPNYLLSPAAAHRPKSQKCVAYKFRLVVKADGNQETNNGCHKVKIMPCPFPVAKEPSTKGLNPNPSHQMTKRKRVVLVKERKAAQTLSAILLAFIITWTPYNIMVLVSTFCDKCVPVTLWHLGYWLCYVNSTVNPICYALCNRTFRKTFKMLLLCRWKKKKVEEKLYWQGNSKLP

[9] = biological target: Muscarinic acetylcholine receptor M4 (Homo sapiens, UniProt P08173); test: Displacement of [3H]QNB from human recombinant muscarinic M4 receptor expressed in CHO cells after 1 to […] by scintillation counting analysis; type: cell-based
[10] = biological target: Muscarinic acetylcholine receptor M3 (Homo sapiens, UniProt P20309); test: Displacement of [3H]QNB from human recombinant muscarinic M3 receptor expressed in CHO cells after 1 to […] by scintillation counting analysis; type: cell-based
[11] = biological target: Muscarinic acetylcholine receptor M1 (Homo sapiens, UniProt P11229); test: Displacement of [3H]QNB from human recombinant muscarinic M1 receptor expressed in CHO cells after 1 to […] by scintillation counting analysis; type: cell-based
Histamine H4 receptor = Histamine H4 receptor (Homo sapiens, UniProt Q9H3N8); test: Displacement of [3H]Histamine from human recombinant histamine H4 receptor expressed in HEK293 cells after 1 to […] by scintillation counting analysis; type: cell-based
Histamine H4 receptor, sequence (Q9H3N8 whole entry): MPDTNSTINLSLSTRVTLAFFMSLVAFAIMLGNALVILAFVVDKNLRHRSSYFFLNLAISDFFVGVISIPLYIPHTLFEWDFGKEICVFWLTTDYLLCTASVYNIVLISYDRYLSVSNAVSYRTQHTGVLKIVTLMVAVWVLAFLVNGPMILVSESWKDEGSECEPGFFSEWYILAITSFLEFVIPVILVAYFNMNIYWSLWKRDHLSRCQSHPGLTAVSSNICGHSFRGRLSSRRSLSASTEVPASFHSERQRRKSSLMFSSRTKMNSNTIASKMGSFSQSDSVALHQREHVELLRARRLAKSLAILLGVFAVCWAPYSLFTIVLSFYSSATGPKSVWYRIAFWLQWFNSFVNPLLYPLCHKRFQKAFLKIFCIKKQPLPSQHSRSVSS

Histamine H3 receptor = Histamine H3 receptor (Homo sapiens, UniProt Q9Y5N1); test: Displacement of [3H]alpha-methylhistamine from human recombinant histamine H3 receptor expressed in HEK293 cells after 1 to […] by scintillation counting analysis; type: cell-based
Histamine H3 receptor, sequence (Q9Y5N1 whole entry): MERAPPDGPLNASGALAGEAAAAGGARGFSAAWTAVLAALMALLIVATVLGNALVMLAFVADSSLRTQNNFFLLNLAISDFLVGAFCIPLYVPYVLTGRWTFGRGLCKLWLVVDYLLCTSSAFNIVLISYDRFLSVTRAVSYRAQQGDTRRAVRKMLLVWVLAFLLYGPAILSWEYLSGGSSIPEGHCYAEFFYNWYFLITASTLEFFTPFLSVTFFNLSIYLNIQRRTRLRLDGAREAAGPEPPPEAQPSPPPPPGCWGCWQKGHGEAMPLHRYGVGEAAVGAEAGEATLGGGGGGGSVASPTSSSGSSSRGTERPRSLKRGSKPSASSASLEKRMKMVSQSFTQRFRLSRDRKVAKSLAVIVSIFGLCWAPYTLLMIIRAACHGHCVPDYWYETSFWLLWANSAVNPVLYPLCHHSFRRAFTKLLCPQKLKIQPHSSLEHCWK

Histamine H2 receptor = Histamine H2 receptor (Homo sapiens, UniProt P25021); test: Displacement of [3H]Tiotidine from human recombinant histamine H2 receptor expressed in HEK293 cells after 1 to […] by scintillation counting analysis; type: cell-based
[12] = Displacement of [3H]Baclofen from GABAB receptor in rat brain after 1 to […] by scintillation counting analysis; type: tissue-based
[13] = Displacement of [3H]Muscimol from GABAA receptor in rat brain after 1 to […] by scintillation counting analysis; type: tissue-based
[14] = biological target: Sodium-dependent dopamine transporter (Homo sapiens, UniProt Q01959); test: Displacement of [3H]WIN35428 from human recombinant dopamine transporter expressed in HEK293 cells after 1 to […] by scintillation counting analysis; type: cell-based
Sodium-dependent dopamine transporter, sequence (Q01959 whole entry): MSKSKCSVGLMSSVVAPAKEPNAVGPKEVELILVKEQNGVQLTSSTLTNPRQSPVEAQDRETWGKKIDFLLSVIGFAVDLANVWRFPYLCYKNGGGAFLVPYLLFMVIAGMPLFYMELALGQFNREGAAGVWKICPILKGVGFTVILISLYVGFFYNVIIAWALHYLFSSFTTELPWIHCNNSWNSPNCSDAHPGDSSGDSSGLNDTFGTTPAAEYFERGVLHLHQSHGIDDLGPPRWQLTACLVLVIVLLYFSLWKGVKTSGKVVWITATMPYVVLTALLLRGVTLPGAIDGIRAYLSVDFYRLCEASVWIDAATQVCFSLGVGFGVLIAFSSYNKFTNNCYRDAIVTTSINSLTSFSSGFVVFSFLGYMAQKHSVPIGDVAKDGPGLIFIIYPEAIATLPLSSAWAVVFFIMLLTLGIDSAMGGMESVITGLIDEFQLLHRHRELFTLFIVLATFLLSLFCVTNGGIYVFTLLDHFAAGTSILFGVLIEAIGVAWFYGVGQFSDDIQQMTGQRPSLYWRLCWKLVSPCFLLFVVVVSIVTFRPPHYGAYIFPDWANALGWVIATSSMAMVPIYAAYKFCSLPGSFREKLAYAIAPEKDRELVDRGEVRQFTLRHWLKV

D(4) dopamine receptor = D(4) dopamine receptor (Homo sapiens, UniProt P21917); test: Displacement of [3H]N-methylspiperone from human recombinant dopamine D4 receptor expressed in HEK293 cells after 1 to […] by scintillation counting analysis; type: cell-based
[15] = Displacement of [3H]Flunitrazepam from GABAA receptor benzodiazepine binding site in rat brain after 1 to […] by scintillation counting analysis; type: tissue-based
[16] = biological target: Beta-3 adrenergic receptor (Homo sapiens, UniProt P13945); test: Displacement of [125I]Iodopindolol from human recombinant adrenergic beta3 receptor expressed in HEK293 cells coexpressing FLP-IN after 1 to […] by scintillation counting analysis; type: cell-based
Beta-3 adrenergic receptor, sequence (P13945 whole entry): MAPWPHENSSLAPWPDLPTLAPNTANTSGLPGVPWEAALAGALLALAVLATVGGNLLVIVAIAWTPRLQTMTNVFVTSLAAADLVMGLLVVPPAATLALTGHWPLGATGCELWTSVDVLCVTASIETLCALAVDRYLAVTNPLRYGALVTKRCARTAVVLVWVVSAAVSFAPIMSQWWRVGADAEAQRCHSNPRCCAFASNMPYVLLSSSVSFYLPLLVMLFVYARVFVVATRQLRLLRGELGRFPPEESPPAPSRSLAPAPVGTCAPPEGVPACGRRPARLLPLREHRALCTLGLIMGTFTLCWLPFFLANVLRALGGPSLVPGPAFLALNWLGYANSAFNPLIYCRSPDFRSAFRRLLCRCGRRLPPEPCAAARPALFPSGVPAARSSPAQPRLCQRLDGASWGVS

[17] = biological target: Beta-2 adrenergic receptor (Homo sapiens, UniProt P07550); test: Displacement of [125I]Iodopindolol from human recombinant adrenergic beta2 receptor expressed in HEK293 cells coexpressing FLP-IN after 1 to […] by scintillation counting analysis; type: cell-based
[18] = biological target: Beta-1 adrenergic receptor (Homo sapiens, UniProt P08588); test: Displacement of [125I]Iodopindolol from human recombinant adrenergic beta1 receptor expressed in CHO cells coexpressing FLP-IN after 1 to […] by scintillation counting analysis; type: cell-based
[19] = biological target: Neuronal acetylcholine receptor; alpha3/beta4 (Homo sapiens, UniProt P30926+P32297); test: Displacement of [3H]Epibatidine from human recombinant alpha3beta4 nACh receptor expressed in HEK293 cells after 1 to […] by scintillation counting analysis; type: cell-based
Neuronal acetylcholine receptor; alpha3/beta4, sequence (P30926 whole entry): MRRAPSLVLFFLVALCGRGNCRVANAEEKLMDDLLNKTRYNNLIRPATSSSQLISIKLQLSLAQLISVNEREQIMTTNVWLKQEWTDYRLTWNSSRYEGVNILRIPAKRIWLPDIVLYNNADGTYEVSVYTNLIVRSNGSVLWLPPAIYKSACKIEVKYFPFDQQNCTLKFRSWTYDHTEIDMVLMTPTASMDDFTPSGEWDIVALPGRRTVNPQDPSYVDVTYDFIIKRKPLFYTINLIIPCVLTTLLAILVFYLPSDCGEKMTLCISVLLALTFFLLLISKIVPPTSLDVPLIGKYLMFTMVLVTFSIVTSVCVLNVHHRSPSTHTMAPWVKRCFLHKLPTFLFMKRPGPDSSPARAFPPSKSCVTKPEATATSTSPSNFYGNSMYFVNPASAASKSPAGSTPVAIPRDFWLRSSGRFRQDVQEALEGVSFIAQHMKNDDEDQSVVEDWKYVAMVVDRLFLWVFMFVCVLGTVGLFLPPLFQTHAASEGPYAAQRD
Neuronal acetylcholine receptor; alpha3/beta4, sequence (P32297 whole entry): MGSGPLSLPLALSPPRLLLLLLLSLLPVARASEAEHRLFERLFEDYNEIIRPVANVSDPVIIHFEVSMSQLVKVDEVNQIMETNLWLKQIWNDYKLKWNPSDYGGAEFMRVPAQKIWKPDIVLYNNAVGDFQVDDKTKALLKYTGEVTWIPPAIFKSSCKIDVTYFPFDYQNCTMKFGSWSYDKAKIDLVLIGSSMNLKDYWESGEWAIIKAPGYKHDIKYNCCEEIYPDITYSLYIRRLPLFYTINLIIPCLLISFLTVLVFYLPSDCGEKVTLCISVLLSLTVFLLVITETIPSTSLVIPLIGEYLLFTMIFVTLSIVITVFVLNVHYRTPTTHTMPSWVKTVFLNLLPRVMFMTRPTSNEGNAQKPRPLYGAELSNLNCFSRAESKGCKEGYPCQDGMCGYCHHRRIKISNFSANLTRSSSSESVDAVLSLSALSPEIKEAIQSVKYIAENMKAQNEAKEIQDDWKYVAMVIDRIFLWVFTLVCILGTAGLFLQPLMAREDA

[20] = biological target: Neuronal acetylcholine receptor; alpha3/beta2 (Homo sapiens, UniProt P17787+P32297); test: Displacement of [3H]Epibatidine from human recombinant alpha3beta2 nACh receptor expressed in HEK293 cells after 1 to […] by scintillation counting analysis; type: cell-based
[21] = biological target: Nicotinic acetylcholine receptor alpha2/beta2 (Homo sapiens, UniProt P02708+P17787); test: Displacement of [3H]Epibatidine from human recombinant alpha2beta2 nACh receptor expressed in HEK293 cells after 1 to […] by scintillation counting analysis; type: cell-based
[22] = biological target: 5-hydroxytryptamine receptor 7 (Homo sapiens, UniProt P34969); test: Displacement of [3H]LSD from human recombinant 5-HT7 receptor expressed in HEK293 cells after 1 to […] by scintillation counting analysis; type: cell-based

| SMILES | Ki [1] [µM] | Ki [2] [µM] | Ki [3] [µM] | Ki [4] [µM] | IC50 [5] [µM] | Ki [5] [µM] | Ki ([6]; read-out: pKi (converted)) [µM] | Ki [7] [µM] | pKi (Glutamate NMDA receptor) | Ki [8] [µM] | Ki [9] [µM] | Ki [10] [µM] | Ki [11] [µM] | Ki (Histamine H4 receptor) [µM] | Ki (Histamine H3 receptor) [µM] | pKi [12] | pKi [13] | Ki [14] [µM] | Ki (D(4) dopamine receptor) [µM] | pKi [15] | other results |
| --- | --- | --- | --- | --- | --- | --- | --- | --- | --- | --- | --- | --- | --- | --- | --- | --- | --- | --- | --- | --- | --- |
| C=CCN(CC=C)CCc1c[nH]c2ccc(OC)cc12 | 1.74 | 0.413 | 0.149 | 0.175 | 8.71 | 2.47 | 0.398 | 0.679 | < 5 | > 10 | > 10 | > 10 | > 10 | > 10 | > 10 | < 5 | < 5 | > 10 | > 10 | < 5 | Ki ([6]; read-out: Ki): 0.4 µM; Ki (Histamine H2 receptor; read-out: Ki): 4.25 µM; Ki [16]: > 10 µM; Ki [17]: > 10 µM; Ki ([18]; read-out: pKi (converted)): > 10 µM; Ki [19]: > 10 µM; Ki [20]: > 10 µM; Ki [21]: > 10 µM; Ki [22]: 0.017 µM |
| CC(N)Cc1c[nH]c2ccccc12 (configuration not stated) | 0.166 | 1.92 | 1.79 | 3.24 | 2.34 | 0.812 | > 10 | 1.13 | < 5 | > 10 | > 10 | > 10 | > 10 | > 10 | > 10 | < 5 | < 5 | > 10 | > 10 | < 5 | Ki (Histamine H2 receptor; read-out: pKi (converted)): > 10 µM; Ki [16]: > 10 µM; Ki [17]: > 10 µM; Ki ([18]; read-out: Ki): 3.78 µM; Ki [19]: > 10 µM; Ki [20]: > 10 µM; Ki [21]: > 10 µM; Ki [22]: 0.103 µM |
